Data reported in patent US11413261B2, “Pharmaceutical composition for treating cancer comprising lactate metal salt” (METIMEDI PHARMACEUTICALS CO., LTD, priority 2014, dated 2022).

Columns and labels:
[1] = system: GLUT 1 and HK2; assay: GLUT 1 and HK2 expression under hypoxia (real-time PCR, Western blot); type: cell-based, human; details: HCT-116 and HT-29; hypoxia condition
Protocol: Human colorectal cancer cell lines (HCT-116 and HT-29) were cultured under normoxia or hypoxia condition. The cell lines cultured under the hypoxia condition were treated with calcium lactate, and then, expression levels of GLUT 1 and HK2 in each of the cultured cell lines were compared at the mRNA and protein expression levels (FIG. 7).

[2] = system: human colorectal cancer cell lines (HCT-116 and HT-29); assay: Pyruvate level in cancer cells (pyruvate assay kit); type: cell-based; details: 2.5 mM, 24 hours
Protocol: Each of human colorectal cancer cell lines (HCT-116 and HT-29) with the cell number of 5×10^5 cells was treated with 2.5 mM calcium lactate for 24 hours and the cells were disrupted by ultrasonication and filtered using a 10 kDa filter so as to obtain filtrate. The obtained filtrate was applied to a pyruvate assay kit (Abcam, Cambridge, Mass.) to measure the concentration of pyruvate included in the filtrate (FIG. 12).

[3] = system: HIF-1α (hypoxia inducible factor 1α); assay: HIF-1α protein expression (Western blot); type: cell-based, human; details: HCT-116 and HT-29, hypoxia condition
Protocol: Human colorectal cancer cell lines (HCT-116 and HT-29) were cultured for 24 hours, under normoxia or hypoxia condition either treated or not treated with 2.5 mM calcium lactate. Then, a Western blot using an anti-HIF-1α antibody was conducted to each of the cultured cancer cell lines (upper part of FIG. 15).
Then, the human colorectal cancer cell lines (HCT-116 and HT-29) were treated with various concentrations (0.5 mM, 1.5 mM and 2.5 mM) of the calcium lactate under hypoxia condition and cultured and change in expression levels of HIF-1α in a nucleus of a cancer cell was measured (lower part of FIG. 15).

[4] = system: human colorectal cancer cell lines (HCT-116 and HT-29); assay: Calcium level in cancer cells (Fluo-3/AM, confocal microscope); type: cell-based; details: 2.5 mM, 24 hours, vs untreated
Protocol: Each of human colorectal cancer cell lines (HCT-116 and HT-29) with the cell number of 5×10^5 cells cultured in a cancer cell culture medium (RPMI1640 medium including 10% FBS and 1% penicillin/streptomycin) at 37° C. with 5% CO2 was treated with 2.5 mM calcium lactate and then cultured for 24 hours. The cultured cancer cells were treated with 10 μM Fluo-3/AM calcium indicator and 25% Pluronic F-127, reacted at 37° C. for 30 minutes, applied with fluorescence probes, and then photographed with a confocal microscope (FIG. 2). In this case, cancer cells untreated with calcium lactate were used as control groups.

[5] = system: PARP; assay: PARP protein expression in melanoma cell lines; type: cell-based, human; details: SKMEL-02 and SKMEL-28; with increasing concentration (0-10 mM), 12 hours
Protocol: Each of human melanoma cell lines (SKMEL-02 and SKMEL-28) cultured in a cancer cell culture medium (RPMI1640 medium including 10% FBS and 1% penicillin/streptomycin) at 37° C. with 5% CO2 was treated with 0 mM, 0.5 mM, 1.0 mM, 2.5 mM, 5.0 mM, or 10 mM calcium lactate for 12 hours. Then, protein expression levels of PARP expressed in the melanoma cell lines were compared (FIG. 10).

In the case of `CC(O)C(=O)[O-].CC(O)C(=O)[O-].[Ca+2]` (stereo not drawn) [calcium lactate], the “expression levels of GLUT 1 and HK2 (activation of glycolysis)” value [1] was “reduced”, the “pyruvate levels in the cells” value [2] was “sharply increased” and the “protein expression levels of HIF-1α” value ([3]; 2.5 mM, 24 hours) was “not expressed”. For the same molecule, the “expression levels of HIF-1α in a nucleus of a cancer cell” value ([3]; 0.5, 1.5, 2.5 mM) was “suppresses the expression levels of HIF-1α concentration dependently”, the “concentration of calcium in cancer cells” value [4] was “increased” and the “protein expression levels of PARP” value [5] was “decreased”.
